Source: publication PMC10967448 (Antibiotics, 2024)
Converted amounts (≈) assume the structure as drawn. Read-outs that look alike come from different tables or passages of the source. Square brackets hold non-standard residues; d marks the D form. Peptide text beside a SMILES is read from it. Aib = CC(C)(N)C(=O)O

Legend:
M. smegmatis [1] = tested on: M. smegmatis
ClpC = ClpC (Mycolicibacterium smegmatis, UniProt A0R574); assay: biochemical; format: binding, Mycobacterium smegmatis
From the text: (§1) All the binding data were double-referenced by blank cycle and reference flow cell subtraction. The resulting data fit a 1:1 Langmuir binding model using Biacore Insight Evaluation Software 4.0 (GE Healthcare).

ClpC (S437P) = ClpC (S437P) (Mycolicibacterium smegmatis, UniProt A0R574, S437P); assay: biochemical; format: binding, Mycobacterium smegmatis
Sequence of ClpC (S437P) (A0R574 whole entry S437P, looked up): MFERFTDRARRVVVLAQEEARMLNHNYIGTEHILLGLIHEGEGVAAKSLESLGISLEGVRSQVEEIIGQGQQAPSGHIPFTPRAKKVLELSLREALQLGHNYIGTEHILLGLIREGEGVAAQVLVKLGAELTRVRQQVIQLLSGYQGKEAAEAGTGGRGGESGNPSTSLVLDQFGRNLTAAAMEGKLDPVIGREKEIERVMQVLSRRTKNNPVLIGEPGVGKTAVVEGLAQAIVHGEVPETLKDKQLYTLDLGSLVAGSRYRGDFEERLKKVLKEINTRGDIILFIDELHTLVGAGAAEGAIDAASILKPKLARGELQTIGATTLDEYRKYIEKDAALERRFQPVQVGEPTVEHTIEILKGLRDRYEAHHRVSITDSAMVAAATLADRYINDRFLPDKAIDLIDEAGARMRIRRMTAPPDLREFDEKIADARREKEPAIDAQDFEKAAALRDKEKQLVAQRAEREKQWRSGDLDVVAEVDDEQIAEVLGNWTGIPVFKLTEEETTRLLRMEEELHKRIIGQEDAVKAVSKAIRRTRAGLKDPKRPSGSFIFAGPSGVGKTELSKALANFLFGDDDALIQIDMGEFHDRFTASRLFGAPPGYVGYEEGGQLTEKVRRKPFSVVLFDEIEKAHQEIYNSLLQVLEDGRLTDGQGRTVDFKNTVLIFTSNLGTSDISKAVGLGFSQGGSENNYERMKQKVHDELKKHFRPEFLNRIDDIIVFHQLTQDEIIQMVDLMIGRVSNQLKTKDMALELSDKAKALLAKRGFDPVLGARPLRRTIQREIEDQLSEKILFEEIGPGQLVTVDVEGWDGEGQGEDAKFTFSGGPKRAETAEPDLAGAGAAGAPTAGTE
From the text: as §1

M. smegmatis [2] = tested on: M. smegmatis; remark: listed apart in the source
ClpCP1P2 = conditions: 10 μM COG1410; 1 μM ClpC, 2 μM ClpP1 and ClpP2, 100 μM ATP, 1 μM FITC-casein, 1 h, 37 °C, pH 7.5
[3] = tested on: pandrug-resistant Acinetobacter baumannii; parameters: method as in PMID 36081797; conditions: cited from earlier work
[4] = […], Tables 2 and 3 print no unit (text b20 uses μg/mL), micro-dilution, 37 °C, 48 h
[5] = […], Tables 2 and 3 print no unit, micro-dilution, 37 °C, 48 h
[6] = strain clpC (KD), Tables 2 and 3 print no unit, micro-dilution, 37 °C, 48 h

Sequence of ClpC (A0R574 whole entry): as the sequence (A0R574 whole entry S437P, looked up) above, with P437S counted along it

Molecule | MIC (M. smegmatis [1]; [4]) | MIC (M. smegmatis [1]; [5]) [µg/mL] | MIC (M. smegmatis [1]; [6]) [µg/mL] | also measured
CC(=O)NC[C@H]1CN(c2ccc(N3CCOCC3)c(F)c2)C(=O)O1 [linezolid] | 1 | 1 (≈ 2.96 µM) | 1 (≈ 2.96 µM) | –
CC(=O)N[C@@H](C)C(=O)N[C@@H](CO)C(=O)NC(C)(C)C(=O)N[C@@H](CC(C)C)C(=O)N[C@@H](CCCNC(=N)N)C(=O)N[C@@H](CCCCN)C(=O)N[C@@H](CC(C)C)C(=O)NC(C)(C)C(=O)N[C@@H](CCCCN)C(=O)N[C@@H](CCCNC(=N)N)C(=O)N[C@@H](CC(C)C)C(=O)N[C@@H](CC(C)C)C(N)=O [COG1410] (Ac-AS[Aib]LRKL[Aib]KRLL-NH2) | – | – | – | Kd (ClpC): 2030 nM; kon (ClpC; pH 7.4, read-out: association constant (ka)): 5780 M⁻¹ s⁻¹; Kd (ClpC (S437P)): 1310 nM; kon (ClpC (S437P); pH 7.4, read-out: ka): 9900 M⁻¹ s⁻¹; MIC (M. smegmatis [1]; strain 35g/pSMT3-ClpC (S437P), micro-dilution, 37 °C, 48 h, triplicate): 256 µg/mL (≈ 182 µM); MIC (M. smegmatis [1]; strain WT/pSMT3-ClpC (overexpression), micro-dilution, 37 °C, 48 h, triplicate): 16 µg/mL (≈ 11.4 µM); MIC (M. smegmatis [1]; strain clpC (KD), knockdown, micro-dilution, 37 °C, 48 h, triplicate): >256 µg/mL; MIC (M. smegmatis [1]; strain clpC (KD)/pSMT3-ClpC (S437P), micro-dilution, 37 °C, 48 h, triplicate): >256 µg/mL; MBC (M. smegmatis [2]; strain 35g/pSMT3-ClpC (S437P)): >256 µg/mL; MBC (M. smegmatis [2]; strain clpC (KD), knockdown): >256 µg/mL; MBC (M. smegmatis [2]; strain clpC (KD)/pSMT3-ClpC (S437P)): >256 µg/mL
NCC[C@H](O)C(=O)N[C@@H]1C[C@H](N)[C@@H](O[C@H]2O[C@H](CN)[C@@H](O)[C@H](O)[C@H]2O)[C@H](O)[C@H]1O[C@H]1O[C@H](CO)[C@@H](O)[C@H](N)[C@H]1O [amikacin] | 0.5 | 0.5 (≈ 0.854 µM) | 0.5 (≈ 0.854 µM) | –
CO[C@@]1(NC(=O)Cc2cccs2)C(=O)N2C(C(=O)O)=C(COC(N)=O)CS[C@@H]21 [cefoxitin] | 16 | 16 (≈ 37.4 µM) | 16 (≈ 37.4 µM) | –
IRMRIRVLL [antiTB_1080] | 32 | 128 | > 256 | –
WKWLKKWIK [antiTB_1026] | 32 | 256 | > 256 | –
LRVRLASHLRKLRKRLL [COG133] | >256 | > 256 | > 256 | anti-mycobacterial activity (M. smegmatis [1]; M. smegmatis, result in words): did not demonstrate anti-mycobacterial activity; increase in proteolytic activity, ClpCP1P2 system (ClpCP1P2): no influence on proteolytic activity
CC[C@H]1OC(=O)[C@H](C)[C@@H](O[C@H]2C[C@@](C)(OC)[C@@H](O)[C@H](C)O2)[C@H](C)[C@@H](O[C@@H]2O[C@H](C)C[C@H](N(C)C)[C@H]2O)[C@](C)(O)C[C@@H](C)CN(C)[C@H](C)[C@@H](O)[C@]1(C)O [azithromycin] | 2 | 2 (≈ 2.67 µM) | 2 (≈ 2.67 µM) | –
polymyxin B | – | – | – | fold increase of MIC after 55 passages in the presence of sub-MIC agent [3]: 64 fold
LRKLRKRLVRLASHLRKLRKRLL [ApoE23] | 128 | > 128 | > 128 | MIC (M. smegmatis [1]): 128 µg/mL; increase in proteolytic activity, ClpCP1P2 system (ClpCP1P2): substantial increase in proteolytic activity
